# Tests used:
# in vitro = assay type: cell-based; conditions: for CC50 at 7 days: human; for CC50: African green monkey
# Procedure: Anti-human cytomegalovirus (HCMV) activity is determined in a yield reduction assay utilizing a recombinant HCMV (RC256) that produces β-gal (Spaete, R. R.; Mocarski, E. S. Proceedings of the National Academy of Sciences USA 84:7213-7217, 1987). Primary human diploid fibroblasts (HFF cells) are infected at an moi of 0.01 with RC256, and serial dilutions of the compound in DMSO are added. The final concentration of DMSO in all wells is 1%. The infection is allowed to proceed for 7 days at which time the β-gal activity in cell lysates is measured. Activity in wells containing compound is compared to control wells and percent inhibition determined.
# Cellular toxicity assays: Cellular toxicity is measured in HFF cells. Cells are plated in 96 well plates at 1×10^4 cells/well. Serial dilutions of compounds are added to the wells in DMSO, with the final concentration of DMSO in all wells at 1%, in a total volume of 200 μL. The plates are maintained in a 37° C. incubator for 7 days. 50 μL of a solution of XTT (sodium-3′[1-(phenyl-amino-carbonyl)-3,-tetrazolium]-bis(bis(4-methoxy-6-nitro)-benzene sulfonic acid hydrate) (3×10^−4 mg/ml) is added to each well, and the plates returned to the incubator for 4 hours, after which the A450 (absorbance at wavelength of 450 nm) for each well is measured in a plate reader. (Roehm, N. W., et al J. Immunol. Meth. 142:257-265, 1991). Toxicity is determined by comparison of the OD (optical density) of a well containing compound to the OD of wells containing DMSO only.
# [1] = tested on: human cytomegalovirus (HCMV); test: microbe, parasite or virus in culture; assay type: cell-based; conditions: Human betaherpesvirus 5, HFF
# Procedure: Primary human diploid fibroblasts (HFF cells) are infected at an moi of 0.01 with RC256, and serial dilutions of the compound in DMSO are added. The final concentration of DMSO in all wells is 1%. The infection is allowed to proceed for 7 days at which time the β-gal activity in cell lysates is measured. Activity in wells containing compound is compared to control wells and percent inhibition determined.
# [2] = tested on: herpes simplex virus 1 (HSV); test: microbe, parasite or virus in culture; assay type: cell-based; conditions: for EC50: Human alphaherpesvirus 1, Vero; for TI (EC50/TC50): therapeutic index, HSV-1, Vero cells
# Procedure: Vero (African Green Monkey kidney) cells are infected at a multiplicity of infection of 0.01 with the virus, and serial dilutions of the compound in dimethyl sulfoxide (DMSO) are added. The final concentration of DMSO in all wells is 1%. DMSO is added to control wells. The infection is allowed to proceed for 2 days at which time the β-gal activity in cell lysates is measured. Activity in wells containing compound is compared to control wells and percent inhibition determined.
SMILES,CC50 at 7 days (in vitro),EC50 [1],melting point,EC50 [2],TI (EC50/TC50) [2],CC50 (in vitro)
Nc1nc(O)c2ncn(COC(CO)CO)c2n1 [Ganciclovir],> 100000 nM,2600 nM,,,,
"CCCC(Cc1ccccc1)Nc1ccc2oc3ccccc3c2c1 (stereo not drawn) [Example 65, (1-Benzyl-butyl)-dibenzofuran-2-yl-amine]",> 100000 nM,3000 nM,,,,
c1ccc2c(c1)oc1ccc(NCc3ccsc3)cc12,,,62 to 63 °C,,,
"CSc1ccc(CNc2ccc3oc4ccccc4c3c2)cc1 [Example 61, Dibenzofuran-2-yl-(4-methylsulfanyl-benzyl)-amine]",> 100000 nM,2900 nM,103 to 104 °C,,,
c1ccc2c(c1)CN(c1ccc3oc4ccccc4c3c1)C2,,,193 to 195 °C,,,
"CCn1c2ccccc2c2cc(NCc3cccc(F)c3C)ccc21 [Example 217, (9-Ethyl-9H-carbazol-3-yl)-(3-fluoro-2-methyl-benzyl)-amine]",,,,320 nM,>313,> 100000 nM
FC(F)(F)Oc1ccc(CNc2ccc3oc4ccccc4c3c2)cc1,,,75 to 77 °C,,,
O=C1c2ccccc2C(=O)N1c1ccc2oc3ccccc3c2c1,,,217 to 218 °C,,,
Oc1ccccc1CNc1ccc2oc3ccccc3c2c1,,,145 to 147 °C,,,
CC(Nc1ccc2oc3ccccc3c2c1)c1ccccc1 (stereo not drawn),,,94 to 95 °C,,,
"COc1ccc(CNc2ccc3oc4ccc(Cl)cc4c3c2)cc1F [Example 139, (8-Chloro-dibenzofuran-2-yl)-(3-fluoro-4-methoxy-benzyl)-amine]",,,,400 nM,>250,> 100000 nM
Cc1ccccc1CNc1ccc2oc3ccccc3c2c1,,,84 to 85 °C,,,
c1ccc2c(c1)oc1ccc(NCc3ccc4c(c3)OCO4)cc12,,,85 to 86 °C,,,
"FC(F)(F)c1ccc(CNc2ccc3oc4ccccc4c3c2)cc1 [Example 57, Dibenzofuran-2-yl-(4-trifluoromethyl-benzyl)-amine]",> 100000 nM,1700 nM,89 to 90 °C,810 nM,>124,> 100000 nM
"c1cnc2c(c1)Oc1cc(NCc3cccc4ccccc34)ccc1S2 [Example 93, Naphthalene-1-ylmethyl-(10-oxa-9-thia-1-aza-anthracen-6-yl)-amine]",,,,1300 nM,>77,> 100000 nM
"COc1ccc(CNc2cccc3c2oc2ccccc23)cc1 [Example 150, Dibenzofuran-4-yl-(4-methoxy-benzyl)-amine]",,,,850 nM,>118,> 100000 nM
"Fc1ccc(CNc2ccc3c(c2)Oc2ccccc2S3)c(F)c1 [Example 208, (2,4-Difluoro-benzyl)-phenoxathiin-3-yl-amine]",,,,260 nM,>385,> 100000 nM
c1ccc(Oc2ccc(CNc3ccc4oc5ccccc5c4c3)cc2)cc1,,,91 to 93 °C,,,
c1ccc(CNc2ccc3oc4ccccc4c3c2)cc1,,,81 to 82 °C,,,
"COc1cc(CNc2ccc3oc4ccccc4c3c2)cc(OC)c1 [Example 56, Dibenzofuran-2-yl-(3,5-dimethoxy-benzyl)-amine]",,,87 to 88 °C,700 nM,>143,> 100000 nM
"O=[N+]([O-])c1ccc(CNc2ccc3oc4ccccc4c3c2)cc1 [Example 60, Dibenzofuran-2-yl-(4-nitro-benzyl)-amine]",> 100000 nM,1300 nM,,500 nM,>200,> 100000 nM
c1ccc(Oc2cccc(CNc3ccc4oc5ccccc5c4c3)c2)cc1,,,93 to 94 °C,,,

# Source: patent US6800656B2, “Tricyclic compounds and method of treating herpes virus” (Warner Lambert Company, priority 2000, dated 2004)
